For experiment [1], the system named is isolated hearts from adult male Sprague-Dawley rats. Put plainly: Infarct size in isolated hearts subjected to ischemia/reperfusion (Langendorff, TTC staining). Set-up: species or system rat. Particulars: 50 nM peptide in reperfusion, 30 min global ischemia, ex vivo. Here is the method:
The cardioprotective effects of retro-inverse angiotensin-(1-9) were also investigated in isolated hearts from adult male Sprague-Dawley rats (250-300 g) subjected to ischemia/reperfusion (I/R) using a Langendorff procedure. Rats were anesthetized with pentobarbital [80 mg/kg intraperitoneally (i.p.)] and heparin 100 U/kg was injected into the right atria. Hearts were rapidly harvested and perfused through the aorta with Krebs-Henseleit solution containing NaCl 128.3 mM, KCl 4.7 mM, CaCl2 1.35 mM, MgSO4 1.1 mM, NaHCO3 20.2 mM, NaH2PO4 0.4 mM and glucose 11.1 mM, pH 7.4 (equilibrated with a gas mixture of 95% O2 and 5% CO2 at 37° C.), using a peristaltic pump (Gilson Miniplus 3, France). A latex balloon connected to a pressure transducer was placed through the left atrium and mitral valve into the left ventricle. The balloon was filled with saline to determine isovolumetric intraventricular pressure. Perfusion flow was 10-14 mL/min. Hearts were placed in a heated chamber and paced at 240-300 beats/min with platinum electrodes, using a Grass stimulator (pulses of 5V, 1 ms). […] The infarct size was determined using 2,3,5-triphenyltetrazolium chloride (TTC) staining. […]

Experiment [2] relates to spontaneously hypertensive rats (SHR). In words: Cardiac-resident macrophage phenotype M1/M2 in SHR, flow cytometry. Particulars: SHR, 1,200 ng/kg/min, 14 days. It is filed as in vivo, rat. Here is the method: Experimental animal model. All procedures were performed in accordance with the Guide for the Care and Use of Laboratory Animals published by the U.S. National Institutes of Health (NIH Publication 85 23, 1985) and approved by our Institutional Bioethics Committee. The animals were housed under the continuous professional monitoring of the Medical Veterinary staff in the animal facility of the Pontificia Universidad Católica de Chile, under the following conditions: 12-h light-dark cycle; 21° C. ambient temperature; 50% humidity; adequate ventilation; noise-free environment; and food and water ad libitum. Male spontaneously hypertensive rats (SHR, age 12 weeks) and normotensive Wistar Kyoto rats (WKY, 12 weeks age) were used. […] Systolic blood pressure (SBP), diastolic blood pressure (DBP) and body weight (BW) were measured at the end of the treatment period and the animals were then sacrificed. […]

Entries after “also recorded” stand apart in the source; their conditions may differ. Where a SMILES comes first, the peptide text is derived from it. [ ]: non-standard residue; d: D form.

With `CC[C@@H](C)[C@@H](NC(=O)[C@@H](Cc1c[nH]cn1)NC(=O)[C@H]1CCCN1C(=O)[C@@H](Cc1ccccc1)NC(=O)[C@H](N)Cc1c[nH]cn1)C(=O)N[C@H](Cc1ccc(O)cc1)C(=O)N[C@@H](C(=O)N[C@H](CCCNC(=N)N)C(=O)N[C@H](CC(=O)O)C(=O)O)C(C)C` [retro-inverse angiotensin-(1-9), NH2-^DH^DF^DP^DH^DI^DY^DV^DR^DD-COOH] (H-[dH][dF][dP][dH][dI][dY][dV][dR][dD]-OH), the “decrease of infarct size” value in experiment [1] is “around 70%”. In experiment [2], the “macrophages M1 in cardiac tissues” value is listed as “reversed the increase; also recorded: more marked decrease in macrophages M1 than angiotensin-(1-9)” and the “macrophages M2 in cardiac tissues” value is on record as “increases the macrophages M2”.

The values above are taken from patent publication US20250206779A1, “ANGIOTENSIN-(1-9) ANALOGUE BASED ON D AMINO ACIDS, PHARMACEUTICAL COMPOSITIONS AND USES THEREOF” (UNIVERSIDAD DE CHILE, priority 2021, published 2025).
